Measurements reported in ChEMBL document CHEMBL2157957, “Strategies to mitigate the bioactivation of 2-anilino-7-aryl-pyrrolo[2,1-f][1,2,4]triazines: identification of orally bioavailable, efficacious ALK inhibitors” (J Med Chem, 2012).
One block for each compound: values may come before it.

Columns and labels:
[1] = Half life in human liver microsomes at 0.5 uM preincubated for 10 mins before NADPH and UDPGA challenge; type: ADME, Microsome
[2] = Cmax in SCID mouse at 10 mg/kg, po; type: ADME, organism-based; parameters: dose 10 mg/kg, route oral; details: in vivo
Mus musculus [3] = experiment: Toxicity in human SUP-M2 cells xenografted SCID mouse assessed as incidence of overt toxicity at 55 mg/kg, po BID measured 12 days post dose; type: organism-based; parameters: dose 55 mg/kg, route oral; details: in vivo, 288 h
[4] = Clearance in SCID mouse at 1 mg/kg, iv; type: ADME, organism-based; parameters: dose 1 mg/kg, route intravenous; details: in vivo
[5] = target: NPM/ALK (Nucleophosmin/ALK tyrosine kinase receptor) (Homo sapiens, UniProt Q9UM73); experiment: Inhibition of human NPM-ALK phosphorylation using 4-MeUP substrate by cell based assay
Chain of NPM/ALK (Nucleophosmin/ALK tyrosine kinase receptor) (Q9UM73 whole entry, the tested form may be a part): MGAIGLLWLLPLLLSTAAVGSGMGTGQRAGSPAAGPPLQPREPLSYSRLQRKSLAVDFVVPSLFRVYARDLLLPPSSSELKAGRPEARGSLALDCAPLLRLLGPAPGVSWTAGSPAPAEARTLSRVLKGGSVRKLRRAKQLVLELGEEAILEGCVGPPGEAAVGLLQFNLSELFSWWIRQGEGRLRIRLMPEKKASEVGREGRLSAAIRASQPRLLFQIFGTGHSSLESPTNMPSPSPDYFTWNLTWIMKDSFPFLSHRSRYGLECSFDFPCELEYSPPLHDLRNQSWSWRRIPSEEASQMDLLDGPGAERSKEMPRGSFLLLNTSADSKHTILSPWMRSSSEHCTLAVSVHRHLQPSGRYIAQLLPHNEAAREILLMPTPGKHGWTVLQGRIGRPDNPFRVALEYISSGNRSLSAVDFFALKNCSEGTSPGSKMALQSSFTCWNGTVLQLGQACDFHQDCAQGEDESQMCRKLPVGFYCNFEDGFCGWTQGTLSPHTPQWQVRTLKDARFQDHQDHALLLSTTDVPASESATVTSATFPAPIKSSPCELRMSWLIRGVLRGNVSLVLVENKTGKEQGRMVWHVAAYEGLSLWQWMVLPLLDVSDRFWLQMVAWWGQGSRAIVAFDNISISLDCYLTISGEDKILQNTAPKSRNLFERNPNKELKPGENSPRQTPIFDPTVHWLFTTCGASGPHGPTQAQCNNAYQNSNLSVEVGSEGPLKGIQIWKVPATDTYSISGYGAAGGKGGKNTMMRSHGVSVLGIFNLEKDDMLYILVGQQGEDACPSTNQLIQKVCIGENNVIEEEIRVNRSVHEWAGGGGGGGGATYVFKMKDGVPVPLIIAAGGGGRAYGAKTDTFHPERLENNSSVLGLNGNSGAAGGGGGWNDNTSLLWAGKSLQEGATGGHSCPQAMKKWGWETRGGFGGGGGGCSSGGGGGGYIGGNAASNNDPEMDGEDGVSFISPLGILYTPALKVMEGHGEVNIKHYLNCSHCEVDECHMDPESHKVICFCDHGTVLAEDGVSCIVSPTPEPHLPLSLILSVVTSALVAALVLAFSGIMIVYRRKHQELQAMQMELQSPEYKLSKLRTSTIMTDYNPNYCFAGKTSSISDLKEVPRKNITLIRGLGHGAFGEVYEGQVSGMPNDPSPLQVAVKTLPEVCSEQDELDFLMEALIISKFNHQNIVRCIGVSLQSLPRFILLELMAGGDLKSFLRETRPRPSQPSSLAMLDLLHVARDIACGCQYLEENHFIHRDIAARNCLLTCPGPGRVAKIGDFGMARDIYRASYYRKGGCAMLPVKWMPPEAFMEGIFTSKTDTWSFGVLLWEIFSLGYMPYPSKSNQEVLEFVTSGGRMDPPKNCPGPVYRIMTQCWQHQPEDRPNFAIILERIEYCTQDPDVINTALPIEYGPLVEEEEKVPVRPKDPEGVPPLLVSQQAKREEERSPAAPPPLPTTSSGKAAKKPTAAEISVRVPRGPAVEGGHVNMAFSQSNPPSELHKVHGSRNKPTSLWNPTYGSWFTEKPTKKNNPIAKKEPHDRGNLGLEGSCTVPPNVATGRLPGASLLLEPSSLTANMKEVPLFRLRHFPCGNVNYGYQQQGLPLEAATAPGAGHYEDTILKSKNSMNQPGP
Chain of NPM/ALK (Nucleophosmin/ALK tyrosine kinase receptor) (P06748 whole entry, further chain, the tested form may be a part): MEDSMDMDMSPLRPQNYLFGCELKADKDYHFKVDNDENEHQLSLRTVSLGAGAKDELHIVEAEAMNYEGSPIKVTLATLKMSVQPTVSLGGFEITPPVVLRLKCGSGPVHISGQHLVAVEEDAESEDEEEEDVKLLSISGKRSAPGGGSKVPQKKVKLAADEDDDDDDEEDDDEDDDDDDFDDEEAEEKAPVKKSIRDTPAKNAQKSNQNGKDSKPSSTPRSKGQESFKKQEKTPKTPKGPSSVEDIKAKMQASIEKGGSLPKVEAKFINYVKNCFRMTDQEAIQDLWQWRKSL

[6] = target: ALK tyrosine kinase receptor (Homo sapiens, UniProt Q9UM73); experiment: Inhibition of GST-tagged human ALK cytoplasmic domain (1058-1620) expressed in Sf21 insect cells using GST-tagged human recombinant PLC-gamma/substrate by ELISA
Chain of ALK tyrosine kinase receptor (Q9UM73 whole entry, the tested form may be a part): as the sequence (Q9UM73 whole entry, the tested form may be a part) above

Insulin receptor = Insulin receptor (Homo sapiens, UniProt P06213); experiment: Inhibition of IR
Chain of Insulin receptor (P06213 28-758 limits assumed): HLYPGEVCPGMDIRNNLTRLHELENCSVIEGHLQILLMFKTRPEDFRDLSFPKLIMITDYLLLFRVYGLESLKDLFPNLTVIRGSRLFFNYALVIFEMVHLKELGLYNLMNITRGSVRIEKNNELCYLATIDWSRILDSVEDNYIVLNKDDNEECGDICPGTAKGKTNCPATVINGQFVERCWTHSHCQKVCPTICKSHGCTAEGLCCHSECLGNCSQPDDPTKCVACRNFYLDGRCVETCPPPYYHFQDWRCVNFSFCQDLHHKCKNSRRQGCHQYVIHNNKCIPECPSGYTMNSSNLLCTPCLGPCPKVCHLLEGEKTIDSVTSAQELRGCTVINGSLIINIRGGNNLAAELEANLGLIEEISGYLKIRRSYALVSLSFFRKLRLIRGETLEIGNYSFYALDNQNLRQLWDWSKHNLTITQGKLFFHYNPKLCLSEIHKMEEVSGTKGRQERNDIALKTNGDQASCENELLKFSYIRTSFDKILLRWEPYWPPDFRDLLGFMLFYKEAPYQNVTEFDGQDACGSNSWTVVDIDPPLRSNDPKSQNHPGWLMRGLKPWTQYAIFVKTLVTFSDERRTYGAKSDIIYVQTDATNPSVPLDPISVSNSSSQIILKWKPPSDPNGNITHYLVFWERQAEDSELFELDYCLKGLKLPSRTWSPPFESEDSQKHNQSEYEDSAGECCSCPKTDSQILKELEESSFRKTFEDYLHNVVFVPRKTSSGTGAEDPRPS
Chain of Insulin receptor (P06213 763-1382 limits assumed): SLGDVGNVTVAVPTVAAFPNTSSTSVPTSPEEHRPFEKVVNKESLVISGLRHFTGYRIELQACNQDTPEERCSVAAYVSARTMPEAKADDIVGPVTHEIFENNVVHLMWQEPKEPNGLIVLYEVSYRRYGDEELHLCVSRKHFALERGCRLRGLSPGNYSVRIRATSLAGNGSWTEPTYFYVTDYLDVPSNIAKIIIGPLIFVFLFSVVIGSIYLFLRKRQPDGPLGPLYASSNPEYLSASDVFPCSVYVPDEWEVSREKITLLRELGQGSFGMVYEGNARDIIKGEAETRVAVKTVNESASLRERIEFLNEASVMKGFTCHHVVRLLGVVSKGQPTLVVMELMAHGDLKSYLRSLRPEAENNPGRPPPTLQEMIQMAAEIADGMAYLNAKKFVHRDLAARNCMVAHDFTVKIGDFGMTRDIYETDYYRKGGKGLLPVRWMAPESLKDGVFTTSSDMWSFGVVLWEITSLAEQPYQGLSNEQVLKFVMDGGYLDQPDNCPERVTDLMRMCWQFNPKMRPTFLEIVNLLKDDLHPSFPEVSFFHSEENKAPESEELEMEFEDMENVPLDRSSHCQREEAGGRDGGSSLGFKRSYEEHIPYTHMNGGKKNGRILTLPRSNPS

Mus musculus [7] = experiment: Inhibition of NPM-ALK phosphorylation in human SUP-M2 cells xenografted in SCID mouse at 30 mg/kg, po administered as single dose measured 12 hrs post dose; type: functional; details: SUP-M2, 12 h
[8] = Cmax in Sprague-Dawley rat at 5 mg/kg, po; type: ADME, organism-based; parameters: dose 5 mg/kg, route oral; details: in vivo
[9] = Half life in Sprague-Dawley rat at 1 mg/kg, iv; type: ADME, organism-based; parameters: dose 1 mg/kg, route intravenous; details: in vivo
[10] = Half life in CD1 mouse liver microsomes at 0.5 uM preincubated for 10 mins before NADPH and UDPGA challenge; type: ADME, Microsome
[11] = AUC (0 to t) in Sprague-Dawley rat at 5 mg/kg, po; type: ADME, organism-based; parameters: dose 5 mg/kg, route oral; details: plasma
[12] = Plasma concentration in human SUP-M2 cells xenografted SCID mouse at 30 mg/kg, po administered as single dose measured 12 hrs post dose; type: ADME, organism-based; parameters: dose 30 mg/kg, route oral
[13] = AUC (0 to t) in SCID mouse at 1 mg/kg, iv; type: ADME, organism-based; parameters: dose 1 mg/kg, route intravenous; details: plasma
[14] = Oral bioavailability in SCID mouse at 10 mg/kg; type: ADME, organism-based; details: in vivo
Mus musculus [15] = experiment: Toxicity in human SUP-M2 cells xenografted SCID mouse assessed as incidence of overt toxicity at 30 mg/kg, po BID measured 12 days post dose; type: organism-based; parameters: dose 30 mg/kg, route oral; details: in vivo, 288 h
[16] = AUC (0 to t) in SCID mouse at 10 mg/kg, po; type: ADME, organism-based; parameters: dose 10 mg/kg, route oral; details: plasma
[17] = Oral bioavailability in Sprague-Dawley rat at 5 mg/kg; type: ADME, organism-based; details: in vivo
Mus musculus [18] = experiment: Toxicity in human SUP-M2 cells xenografted SCID mouse assessed as body weight loss at 55 mg/kg, po BID measured 12 days post dose; type: organism-based; parameters: dose 55 mg/kg, route oral; details: in vivo, 288 h
[19] = Half life in SCID mouse at 10 mg/kg, po; type: ADME, organism-based; parameters: dose 10 mg/kg, route oral; details: in vivo
[20] = Half life in SCID mouse at 1 mg/kg, iv; type: ADME, organism-based; parameters: dose 1 mg/kg, route intravenous; details: in vivo
[21] = Clearance in Sprague-Dawley rat at 1 mg/kg, iv; type: ADME, organism-based; parameters: dose 1 mg/kg, route intravenous; details: in vivo
Plasma = experiment: Ratio of plasma concentration at 12 hrs to plasma concentration at 24 hrs in human SUP-M2 cells xenografted SCID mouse at 30 mg/kg, po administered as single dose; type: ADME, organism-based; parameters: dose 30 mg/kg, route oral; details: in vivo
[22] = Ratio of tumor concentration at 12 hrs to plasma concentration at 12 hrs in human SUP-M2 cells xenografted SCID mouse at 30 mg/kg, po administered as single dose; type: ADME, organism-based; parameters: dose 30 mg/kg, route oral
[23] = Volume of distribution in Sprague-Dawley rat at 1 mg/kg, iv; type: ADME, organism-based; parameters: dose 1 mg/kg, route intravenous; details: in vivo
[24] = Volume of distribution in SCID mouse at 1 mg/kg, iv; type: ADME, organism-based; parameters: dose 1 mg/kg, route intravenous; details: in vivo
[25] = Half life in Sprague-Dawley rat liver microsomes at 0.5 uM preincubated for 10 mins before NADPH and UDPGA challenge; type: ADME, Microsome
Mus musculus [26] = experiment: Toxicity in human SUP-M2 cells xenografted SCID mouse assessed as body weight loss at 30 mg/kg, po BID measured 12 days post dose; type: organism-based; parameters: dose 30 mg/kg, route oral; details: in vivo, 288 h
[27] = AUC (0 to t) in Sprague-Dawley rat at 1 mg/kg, iv; type: ADME, organism-based; parameters: dose 1 mg/kg, route intravenous; details: plasma
[28] = Tmax in Sprague-Dawley rat at 5 mg/kg, po; type: ADME, organism-based; parameters: dose 5 mg/kg, route oral; details: in vivo
[29] = Half life in monkey liver microsomes at 0.5 uM preincubated for 10 mins before NADPH and UDPGA challenge; type: ADME, Macaca mulatta, Microsome; details: rhesus monkey
[30] = Tmax in SCID mouse at 10 mg/kg, po; type: ADME, organism-based; parameters: dose 10 mg/kg, route oral; details: in vivo

SMILES: COc1cc(C2CCN(CC(N)=O)CC2)ccc1Nc1ncc2ccc(-c3ccccc3OC)n2n1
- half-life at 0.5 µM [1]: > 40 min
- Cmax [2]: 3470 ng/mL
- Activity (Mus musculus [3]): Non-toxic
- clearance [4]: 2 mL/min/kg
- IC50 [5]: 100 nM
- IC50 [6]: 6 nM
- IC50 (Insulin receptor): 222 nM
- inhibition in vivo at 30 mg/kg (Mus musculus [7]): 80%
- Cmax [8]: 392 ng/mL
- half-life [9]: 204 min
- half-life at 0.5 µM [10]: > 40 min
- AUC(0-t) [11]: 1760 ng·h/mL
- concentration at 12 h [12]: 6 µM
- AUC(0-t) [13]: 7550 ng·h/mL
- bioavailability [14]: 56%
- Activity (Mus musculus [15]): Non-toxic
- AUC(0-t) [16]: 42500 ng·h/mL
- bioavailability [17]: 43%
- Activity (Mus musculus [18]): Non-toxic
- half-life [19]: 264 min
- half-life [20]: 360 min
- clearance [21]: 12 mL/min/kg
- Ratio (Plasma): 7
- Kp at 12 h [22]: 2
- Vd [23]: 3.5 L/kg
- Vd [24]: 1.1 L/kg
- half-life at 0.5 µM [25]: > 40 min
- Activity (Mus musculus [26]): Non-toxic
- AUC(0-t) [27]: 1110 ng·h/mL
- Tmax [28]: 360 min
- half-life at 0.5 µM [29]: > 40 min
- Tmax [30]: 120 min

SMILES: CNC(=O)CN1CCC(c2ccc(Nc3ncc4ccc(-c5ccccc5OC)n4n3)c(OC)c2)CC1
- half-life at 0.5 µM [1]: < 12 min
- IC50 [5]: 100 nM
- IC50 [6]: 10 nM
- IC50 (Insulin receptor): 161 nM
- half-life at 0.5 µM [29]: < 12 min

SMILES: COc1cc(C2CCN(CC(N)=O)CC2)ccc1Nc1ncc2ccc(-c3ccccc3C#N)n2n1
- IC50 [5]: 250 nM
- IC50 [6]: 19 nM
- IC50 (Insulin receptor): 747 nM

SMILES: COc1cc(C2CCN(CC(N)=O)CC2)ccc1Nc1ncc2ccc(-c3ncccc3OC)n2n1
- IC50 [6]: 1060 nM
- IC50 (Insulin receptor): > 10000 nM

SMILES: COc1cc(C2CCN(CC(N)=O)CC2)ccc1Nc1ncc2ccc(-c3ccncc3OC)n2n1
- IC50 [5]: 150 nM
- IC50 [6]: 9 nM
- IC50 (Insulin receptor): 410 nM

SMILES: COc1cc(C2CCN(CC(N)=O)CC2)ccc1Nc1ncc2ccc(-c3ccccc3N(C)S(C)(=O)=O)n2n1
- half-life at 0.5 µM [1]: < 5 min
- IC50 [5]: 80 nM
- IC50 [6]: 15 nM
- IC50 (Insulin receptor): 552 nM
- half-life at 0.5 µM [10]: 29 min
- half-life at 0.5 µM [25]: < 5 min
- half-life at 0.5 µM [29]: < 5 min

SMILES: COc1cc(N2CCN(C[C@H](C)O)CC2)c(F)cc1Nc1ncc2ccc(-c3ccccc3N(C)S(C)(=O)=O)n2n1
- IC50 [5]: 200 nM
- IC50 [6]: 14 nM

The remaining compounds from weak to strong by IC50 [6], led by results:

- IC50 [6]: 56 nM
SMILES: COc1c(Nc2ncc3ccc(-c4ccccc4N(C)S(C)(=O)=O)n3n2)ccc(N2CCN(C[C@H](C)O)CC2)c1F

- IC50 [5]: 500 nM
- IC50 [6]: 12 nM
- IC50 (Insulin receptor): 2970 nM
SMILES: COc1ccc(-c2ccc3cnc(Nc4ccc(C5CCN(CC(N)=O)CC5)cc4OC)nn23)c(OC)c1

- half-life at 0.5 µM [1]: < 5 min
- IC50 [6]: 11 nM
- half-life at 0.5 µM [10]: < 5 min
- half-life at 0.5 µM [25]: < 5 min
- half-life at 0.5 µM [29]: < 5 min
SMILES: COc1cc(C2CCN(CC(N)=O)CC2)ccc1Nc1ncc2c(O)cc(-c3ccccc3N(C)S(C)(=O)=O)n2n1

- half-life at 0.5 µM [1]: 18 min
- IC50 [5]: 70 nM
- IC50 [6]: 6 nM
- half-life [9]: > 120 min
- half-life at 0.5 µM [10]: > 40 min
- bioavailability [17]: 24%
- clearance [21]: ≤ 4 mL/min/kg
- half-life at 0.5 µM [25]: 31 min
- half-life at 0.5 µM [29]: 6 min
SMILES: COc1cc(C2CCN(CC(N)=O)CC2)ccc1Nc1ncc2c(C)cc(-c3ccccc3N(C)S(C)(=O)=O)n2n1
- inhibition in vivo at 30 mg/kg (Mus musculus [7]): < 75%

- half-life at 0.5 µM [1]: 37 min
- IC50 [5]: 70 nM
- IC50 [6]: 4.7 nM
- half-life [9]: > 120 min
- half-life at 0.5 µM [10]: > 40 min
- bioavailability [17]: 41%
- clearance [21]: ≤ 4 mL/min/kg
- half-life at 0.5 µM [25]: > 40 min
- half-life at 0.5 µM [29]: 15 min
SMILES: COc1cc(C2CCN(CC(N)=O)CC2)ccc1Nc1ncc2c(Cl)cc(-c3ccccc3N(C)S(C)(=O)=O)n2n1
- inhibition in vivo at 30 mg/kg (Mus musculus [7]): < 75%
